From US10035801B2, “Pyrazolo compounds and uses thereof” (CONSTELLATION PHARMACEUTICALS, INC., priority 2013, dated 2018)

Experiments:
Format in all cases: biochemical
GASC1 = biological target: T1, GASC1 (Homo sapiens, UniProt Q9H3R0); assay: GASC1 demethylation assay on H3K9Me3 peptide (RapidFire HT-MS); settings: read-out: GASC1 Inhibition
T1 construct: 6×His tagged recombinant GASC1 (N 350aa) was purified from E. Coli BL21(DE3); 6xHis; made in house; host or cells: E. coli BL21(DE3)
T1 sequence (Q9H3R0 1-350 limits assumed): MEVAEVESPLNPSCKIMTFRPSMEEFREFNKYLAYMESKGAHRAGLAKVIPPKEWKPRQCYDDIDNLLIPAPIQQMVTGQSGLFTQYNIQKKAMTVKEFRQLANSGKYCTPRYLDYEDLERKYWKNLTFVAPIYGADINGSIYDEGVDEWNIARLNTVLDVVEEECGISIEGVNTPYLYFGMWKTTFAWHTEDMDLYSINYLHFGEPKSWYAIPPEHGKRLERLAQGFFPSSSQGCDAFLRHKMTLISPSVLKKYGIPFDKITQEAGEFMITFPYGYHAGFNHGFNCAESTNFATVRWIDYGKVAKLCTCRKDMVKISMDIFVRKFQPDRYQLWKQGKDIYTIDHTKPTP
Procedure: 6×His tagged recombinant GASC1 (N 350aa) was purified from E. Coli BL21(DE3) to near homogeneity. The demethylation reaction buffer contained 50 mM TrisCl pH 7.5, 0.01% Triton X-100, 5% glycerol, 1 mM ascorbate (Cat# A4034, Sigma Aldrich), 5 μM α-ketoglutarate (# K2010, Sigma Aldrich) and 20 μM Fe2(NH4)2(SO4)2 (Cat# F1543, Sigma Aldrich). In 25 μL demethylation reaction system, 400 nM recombinant GASC1 and 20 μM H3K9me3 peptide (1-21 aa) were incubated with compounds for 10 minutes, and then α-ketoglutarate and Fe2(NH4)2(SO4)2 were added to initiate the reaction. All of the reactions were incubated for 45 minutes at room temperature, and then 25 μl of 1 N HCl was added to quench the reactions. After termination, plates were sealed and frozen at −80° C. and shipped on dry ice to BioTrove Inc. (Woburn, Mass.) for analysis.
All the reactions were read by RapidFire™ HT-MS platform developed in BioTrove Inc, and the method has been described in detail previously (Assay and Drug Development Technologies, 2004; 2(4): 373-381). Briefly, at BioTrove, plates were thawed and immediately analyzed using RapidFire™ system coupled to a Sciex API4000 triple quadrapole mass spectrometer. The samples were delivered directly from the plate to a clean-up cartridge (BioTrove column A) to remove nonvolatile assay components with 0.1% formic acid in a 3-sec wash cycle. The peptide substrate and demethylated product were coeluted to the mass spectrometer with 80% acetonitrile, 0.1% formic acid. Both the substrate and product signals were read at their +5 charge species, and the conversion from substrate to product is assessed by [H3K9me2 Read]/[H3K9me2 Read+H3K9me3 Read].

JARID1A = biological target: T2, JARID1A (Homo sapiens, UniProt P29375); assay: JARID1A demethylase assay on H3K4Me3 peptide (RapidFire HT-MS)
T2 construct: FLAG tagged full length recombinant JARID1A and PLU1 proteins were purified from Sf9 insect cells; FLAG; made in house; host or cells: Sf9 insect cells
Procedure: (§1) FLAG tagged full length recombinant JARID1A and PLU1 proteins were purified from Sf9 insect cells to near homogeneity. The demethylation reaction buffer contained 50 mM TrisCl pH 7.5, 0.01% Triton X-100, 0.005% BSA, 1 mM ascorbate (Cat# A4034, Sigma Aldrich), 1.7 μM α-ketoglutarate (# K2010, Sigma Aldrich) and 20 μM Fe2(NH4)2(SO4)2 (Cat# F1543, Sigma Aldrich). In a 25 μL demethylation reaction system, 20 nM recombinant JARID1A or PLU1 proteins and 4 μM H3K4me3 peptide (1-21 aa), which can be biotinylated or unlabelled, were incubated with compounds for 10 minutes, and then α-ketoglutarate and Fe2(NH4)2(SO4)2 were added to initiate the reaction. All of the reactions were incubated for 45 minutes at room temperature, and then 25 μl of 1 N HCl was added to quench the reactions. After termination, plates were sealed and frozen at −80° C. for analysis.
(§2) All the reactions were read by RapidFire™ HT-MS platform developed in BioCius Inc, and described in detail (Assay and Drug Development Technologies, 2004; 2(4): 373-381). Briefly, plates were thawed and immediately analyzed using RapidFire™ system coupled to a Sciex API4000 triple quadrapole mass spectrometer. The samples were delivered directly from the plate to a clean-up cartridge (BioCius column A) to remove nonvolatile assay components with 0.1% formic acid in a 3-sec wash cycle. The peptide substrate and demethylated product were coeluted to the mass spectrometer with 80% acetonitrile, 0.1% formic acid. Both the substrate and product signals were read at their +5 charge species, and the conversion from substrate to product assessed by [H3K4me2 Read]/[H3K4me2 Read+H3K4me3 Read].

PLU-1 = biological target: T3, PLU-1 (Homo sapiens, UniProt Q9UGL1); assay: PLU-1 demethylase assay on H3K4Me3 peptide (RapidFire HT-MS)
T3 construct: FLAG tagged full length recombinant JARID1A and PLU1 proteins were purified from Sf9 insect cells; FLAG; made in house; host or cells: Sf9 insect cells
Procedure: as §1, §2

T3 sequence (Q9UGL1 whole entry): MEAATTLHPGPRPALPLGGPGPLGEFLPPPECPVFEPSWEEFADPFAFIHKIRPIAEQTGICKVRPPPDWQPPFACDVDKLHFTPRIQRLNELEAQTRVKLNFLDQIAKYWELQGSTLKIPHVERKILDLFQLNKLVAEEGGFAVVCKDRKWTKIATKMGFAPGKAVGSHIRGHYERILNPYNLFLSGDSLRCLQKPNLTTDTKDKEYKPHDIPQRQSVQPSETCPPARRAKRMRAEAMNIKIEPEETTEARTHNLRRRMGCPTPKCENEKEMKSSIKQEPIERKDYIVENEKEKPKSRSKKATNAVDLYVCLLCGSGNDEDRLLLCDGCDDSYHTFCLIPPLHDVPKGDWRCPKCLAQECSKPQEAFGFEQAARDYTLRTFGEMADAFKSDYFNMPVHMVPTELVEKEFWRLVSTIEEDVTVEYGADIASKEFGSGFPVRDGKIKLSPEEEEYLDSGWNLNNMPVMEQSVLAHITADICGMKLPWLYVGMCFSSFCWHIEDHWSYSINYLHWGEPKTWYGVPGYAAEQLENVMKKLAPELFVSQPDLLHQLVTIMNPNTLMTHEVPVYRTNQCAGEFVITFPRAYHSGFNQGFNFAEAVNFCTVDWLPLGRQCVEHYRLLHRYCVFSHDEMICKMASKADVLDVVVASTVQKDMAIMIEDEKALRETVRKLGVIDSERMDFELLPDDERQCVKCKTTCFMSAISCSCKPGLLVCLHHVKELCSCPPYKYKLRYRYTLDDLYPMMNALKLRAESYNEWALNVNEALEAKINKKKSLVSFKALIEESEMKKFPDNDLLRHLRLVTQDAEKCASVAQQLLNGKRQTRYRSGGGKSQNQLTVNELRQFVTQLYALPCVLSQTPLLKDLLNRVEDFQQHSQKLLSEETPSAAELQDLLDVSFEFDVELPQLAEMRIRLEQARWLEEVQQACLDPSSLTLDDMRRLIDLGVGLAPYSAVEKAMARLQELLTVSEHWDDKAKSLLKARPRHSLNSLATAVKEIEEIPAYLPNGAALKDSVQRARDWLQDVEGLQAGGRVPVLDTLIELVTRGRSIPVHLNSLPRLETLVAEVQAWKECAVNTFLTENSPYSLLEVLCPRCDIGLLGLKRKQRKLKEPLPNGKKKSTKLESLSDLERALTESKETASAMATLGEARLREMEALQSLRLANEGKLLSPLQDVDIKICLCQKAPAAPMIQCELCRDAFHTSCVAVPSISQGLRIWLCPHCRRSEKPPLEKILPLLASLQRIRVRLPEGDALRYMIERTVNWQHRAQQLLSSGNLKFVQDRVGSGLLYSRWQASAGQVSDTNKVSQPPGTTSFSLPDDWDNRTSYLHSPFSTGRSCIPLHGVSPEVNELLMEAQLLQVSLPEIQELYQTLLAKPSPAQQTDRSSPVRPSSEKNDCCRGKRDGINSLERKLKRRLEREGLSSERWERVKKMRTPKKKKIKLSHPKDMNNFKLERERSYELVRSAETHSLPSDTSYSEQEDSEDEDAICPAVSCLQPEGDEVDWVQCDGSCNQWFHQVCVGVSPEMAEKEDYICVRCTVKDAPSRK
T2 sequence (P29375 whole entry): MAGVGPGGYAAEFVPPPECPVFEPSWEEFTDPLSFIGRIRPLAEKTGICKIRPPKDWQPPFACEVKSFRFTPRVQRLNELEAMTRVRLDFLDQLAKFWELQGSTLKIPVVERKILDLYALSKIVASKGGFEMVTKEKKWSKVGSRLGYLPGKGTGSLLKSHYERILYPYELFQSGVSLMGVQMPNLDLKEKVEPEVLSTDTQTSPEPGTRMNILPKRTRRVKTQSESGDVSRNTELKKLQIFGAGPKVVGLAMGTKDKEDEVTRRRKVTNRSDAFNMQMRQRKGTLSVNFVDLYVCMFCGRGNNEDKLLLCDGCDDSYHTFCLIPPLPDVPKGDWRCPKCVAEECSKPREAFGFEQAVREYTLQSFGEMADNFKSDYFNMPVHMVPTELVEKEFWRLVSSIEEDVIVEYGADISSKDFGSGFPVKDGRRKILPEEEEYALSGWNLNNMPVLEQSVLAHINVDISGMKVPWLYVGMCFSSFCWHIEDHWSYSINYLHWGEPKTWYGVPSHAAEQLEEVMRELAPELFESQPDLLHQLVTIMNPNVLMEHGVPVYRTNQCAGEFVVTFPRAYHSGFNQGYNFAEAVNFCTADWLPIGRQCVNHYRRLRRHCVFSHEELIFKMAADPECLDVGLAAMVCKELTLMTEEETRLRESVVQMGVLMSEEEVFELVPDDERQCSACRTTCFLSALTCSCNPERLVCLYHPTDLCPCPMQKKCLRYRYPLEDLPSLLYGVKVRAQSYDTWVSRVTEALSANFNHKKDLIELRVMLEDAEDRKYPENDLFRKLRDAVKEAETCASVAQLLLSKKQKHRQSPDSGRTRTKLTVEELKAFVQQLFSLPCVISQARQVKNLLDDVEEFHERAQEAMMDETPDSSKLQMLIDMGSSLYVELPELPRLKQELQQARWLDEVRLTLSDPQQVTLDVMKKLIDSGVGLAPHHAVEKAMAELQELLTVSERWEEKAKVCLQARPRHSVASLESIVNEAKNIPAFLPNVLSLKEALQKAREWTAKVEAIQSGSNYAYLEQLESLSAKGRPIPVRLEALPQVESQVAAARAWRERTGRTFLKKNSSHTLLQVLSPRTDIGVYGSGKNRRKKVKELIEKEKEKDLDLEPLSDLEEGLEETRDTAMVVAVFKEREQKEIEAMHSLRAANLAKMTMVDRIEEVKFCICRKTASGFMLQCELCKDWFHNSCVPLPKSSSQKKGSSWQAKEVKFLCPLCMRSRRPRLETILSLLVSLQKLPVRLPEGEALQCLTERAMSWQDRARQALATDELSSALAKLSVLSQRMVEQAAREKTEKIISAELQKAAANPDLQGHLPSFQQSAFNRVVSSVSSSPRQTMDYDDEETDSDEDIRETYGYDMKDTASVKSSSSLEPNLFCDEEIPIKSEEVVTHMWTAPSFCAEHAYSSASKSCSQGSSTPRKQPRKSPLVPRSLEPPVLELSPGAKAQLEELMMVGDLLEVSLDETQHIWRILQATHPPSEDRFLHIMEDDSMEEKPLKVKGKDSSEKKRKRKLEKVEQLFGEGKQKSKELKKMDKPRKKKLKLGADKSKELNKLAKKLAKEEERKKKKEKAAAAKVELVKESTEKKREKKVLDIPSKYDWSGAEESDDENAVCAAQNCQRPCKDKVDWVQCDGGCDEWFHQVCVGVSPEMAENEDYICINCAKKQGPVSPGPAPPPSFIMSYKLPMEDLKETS

IC50 (GASC1) | IC50 (JARID1A) | IC50 (PLU-1) | Compound
≤ 1000 nM | ≤ 1000 nM | ≤ 1000 nM | CCc1c(CO)[nH]c2c(C#N)cnn2c1=O [Compound I-21]
1000 to 10000 nM | ≤ 1000 nM | ≤ 1000 nM | CCc1c(COC)[nH]c2c(C#N)cnn2c1=O [Compound I-23]
≤ 1000 nM | ≤ 1000 nM | ≤ 1000 nM | CCOC(=O)c1[nH]c2c(C#N)cnn2c(=O)c1CC [Compound I-25]
≥ 50000 nM | 1000 to 10000 nM | 1000 to 10000 nM | CCc1c(C)n(C)c2c(C#N)cnn2c1=O [Compound I-29]
≤ 1000 nM |  |  | CCOCc1[nH]c2c(C#N)cnn2c(=O)c1CC [Compound I-45]
≤ 1000 nM |  |  | C#CCc1c(C)[nH]c2c(C#N)cnn2c1=O [Compound I-46]
≤ 1000 nM |  |  | CCc1c(-c2ccccc2)[nH]c2c(C#N)cnn2c1=O [Compound I-47]
1000 to 10000 nM |  |  | CCNC(=O)c1[nH]c2c(C#N)cnn2c(=O)c1CC [Compound I-48]
1000 to 10000 nM | ≤ 1000 nM | 1000 to 10000 nM | CCc1c(C(=O)NC)[nH]c2c(C#N)cnn2c1=O [Compound I-49]
1000 to 10000 nM |  |  | C=CCc1c(CO)[nH]c2c(C#N)cnn2c1=O [Compound I-50]
≤ 1000 nM |  |  | C=CCc1c(COC)[nH]c2c(C#N)cnn2c1=O [Compound I-51]
1000 to 10000 nM |  |  | CCc1c(CNC)[nH]c2c(C#N)cnn2c1=O [Compound I-52]
1000 to 10000 nM |  |  | CCc1c(C(=O)OCc2ccccc2)[nH]c2c(C#N)cnn2c1=O [Compound I-53]
1000 to 10000 nM |  |  | COc1c2c(nc3c(C#N)cnn13)CCCC2 [Compound I-54]
1000 to 10000 nM |  |  | N#Cc1cnn2c(=O)c3ccccc3[nH]c12 [Compound I-55]
